Where “and” joins values, the source holds several entries; their conditions need not be identical. Equal values may be shown once.
Experiments:
L1210 [1] = assay: Tested for inhibition of L1210 cell growth by the compound at a dose of 30 uM and after 48 hr; type: functional; settings: Mus musculus, L1210, 48 h
L1210 [2] = assay: Tested for inhibition of L1210 cell growth by the compound after 96 hr; type: functional, cell-based; settings: Mus musculus, L1210, 96 h
L1210 [3] = assay: Tested for inhibition of L1210 cell growth by the compound after 48 hr; type: functional, cell-based; settings: Mus musculus, L1210, 48 h
L1210 [4] = assay: Tested for inhibition of L1210 cell growth by the compound at a dose of >12.5 uM and after 48 hr; settings: Mus musculus
L1210 [5] = assay: Tested for inhibition of L1210 cell growth by the compound at a dose of >12.5 uM and after 96 hr; settings: Mus musculus
L1210 [6] = assay: Tested for inhibition of L1210 cell growth by the compound at a dose of 30 uM and after 96 hr; type: functional; settings: Mus musculus, L1210, 96 h
L1210 [7] = assay: Tested for inhibition of L1210 cell growth by the compound at a dose of 25 uM and after 48 hr; No inhibition at 25 uM; type: functional, cell-based; settings: Mus musculus
L1210 [8] = assay: Tested for inhibition of L1210 cell growth by the compound at a dose of 25 uM and after 96 hr; No inhibition at 25 uM; type: functional, cell-based; settings: Mus musculus
L1210 [9] = assay: Tested for inhibition of L1210 cell growth by the compound at a dose of 50 uM and after 48 hr; No inhibition at 50 uM; type: functional, cell-based; settings: Mus musculus
L1210 [10] = assay: Tested for inhibition of L1210 cell growth by the compound at a dose of 50 uM and after 96 hr; No inhibition at 50 uM; type: functional, cell-based; settings: Mus musculus
[11] = Inhibitory concentration against growth of cultured […] cells at 144 hrs.; type: functional; settings: Homo sapiens
[12] = Inhibitory concentration against growth of cultured […] cells at 72 hrs.; type: functional; settings: Homo sapiens
HL-60 [13] = assay: Inhibitory concentration against growth of cultured HL-60 cells at 144 hrs.; type: functional, cell-based; settings: Homo sapiens, HL-60, 144 h
HL-60 [14] = assay: Inhibitory concentration against growth of cultured HL-60 cells at 72 hrs.; type: functional, cell-based; settings: Homo sapiens, HL-60, 72 h
L1210 [15] = assay: Percent of clonogenic L1210 cells to relative to control was determined after the treatment with the compound of 10 uM was for 24 hr; type: functional, Mus musculus
L1210 [16] = assay: Percent of clonogenic L1210 cells to relative to control was determined after the treatment with the compound of 10 uM was for 48 hr; type: functional, Mus musculus
L1210 [17] = assay: Percent of clonogenic L1210 cells to relative to control was determined after the treatment with the compound of 10 uM was for 72 hr; type: functional, Mus musculus
L1210 [18] = assay: Percent of clonogenic L1210 cells to relative to control was determined after the treatment with the compound of 10 uM was for 96h; type: functional, Mus musculus
Mus musculus [19] = assay: % increase in life span in L1210 leukemic mice was calculated at 17.5 mg/kg by ip administration; type: functional; settings: route intraperitoneal
Mus musculus [20] = assay: % increase in life span in L1210 leukemic mice was calculated at 20 mg/kg by ip administration; type: functional; settings: route intraperitoneal
Mus musculus [21] = assay: % increase in life span in mice was calculated at 5 mg/kg by ip administration; type: functional; settings: route intraperitoneal
Mus musculus [22] = assay: % increase in life span in L1210 leukemic mice was calculated at 15 mg/kg by ip administration; type: functional; settings: route intraperitoneal
Mus musculus [23] = organism: Mus musculus; assay: Ratio of survivors to the total mice in the test group; 0/13; type: functional
Mus musculus [24] = organism: Mus musculus; assay: Mean survival of mice with L1210 leukemia was evaluated on day 60 with no treatment; type: functional
Mus musculus [25] = assay: Mean survival of L1210 leukemic mice was evaluated on day 60 at 15 mg/kg by ip administration (schedule: Q8H,1-6days); type: functional; settings: route intraperitoneal
Mus musculus [26] = assay: Mean survival of mice with 10e 5 L1210 cells was evaluated on day 60 at 15 mg/kg by ip administration (schedule: Q12H,1-6days); type: functional; settings: route intraperitoneal
Mus musculus [27] = assay: Mean survival of mice with L1210 leukemia on day 60 at 5 mg/kg by ip administration (schedule: Q8H,1-6days); type: functional; settings: route intraperitoneal
Mus musculus [28] = assay: Mean survival of mice with L1210 leukemia was evaluated on day 60 at 10 mg/kg by ip administration (schedule: Q8H,1-6days); type: functional; settings: route intraperitoneal
Mus musculus [29] = assay: Mean survival of mice with L1210 leukemia was evaluated on day 60 at 17.5 mg/kg by ip administration (schedule: Q8H,1-6days); type: functional; settings: route intraperitoneal
Mus musculus [30] = assay: Mean survival of mice with L1210 leukemia was evaluated on day 60 at 20 mg/kg by ip administration (schedule: Q8H,1-3days); type: functional; settings: route intraperitoneal
Mus musculus [31] = assay: Mean survival of mice with L1210 leukemia was evaluated on day 60 at 20 mg/kg by ip administration (schedule: Q8H,1-4days); type: functional; settings: route intraperitoneal
Mus musculus [32] = assay: % increase in life span in L1210 leukemic mice was calculated at 10 mg/kg by ip administration; type: functional; settings: route intraperitoneal
Mus musculus [33] = assay: % increase in life span in mice was calculated at 15 mg/kg by ip administration; type: functional; settings: route intraperitoneal
[34] = Ratio of survivors to the total mice in the test group; 0/10; type: functional
[35] = Ratio of survivors to the total mice in the test group; 0/4; type: functional
[36] = Ratio of survivors to the total mice in the test group; 0/47; type: functional
[37] = Ratio of survivors to the total mice in the test group; 0/8; type: functional
[38] = Ratio of survivors to the total mice in the test group; 4/8; type: functional
[39] = Ratio of survivors to the total mice in the test group; 9/16; type: functional
[40] = Ratio of survivors to the total mice in the test group; 0/6; type: functional
L1210 [41] = assay: Tested for inhibition of L1210 cell growth by the compound at a dose of 50 uM and after 48 hr; type: functional; settings: Mus musculus, L1210, 48 h
L1210 [42] = assay: Tested for L1210 cell growth as percent of control by the compound at a dose of 100 uM and after 48 hr; settings: Mus musculus, L1210, 48 h

Compound `CCNCCCCNCCCNCC` has an inhibition at 30 µM (L1210 [1]) of 61% and an IC50 (L1210 [2]) of 10000 nM.
`CCNCCCN(CC)CCCCN(CC)CCCNCC` showed an IC50 (L1210 [3]) of 100 µM and an IC50 (L1210 [2]) of 3000 nM.
With `CCCNCCCNCCCCNCCCNCCC` the IC50 (L1210 [3]) was 3 µM and the IC50 (L1210 [2]) was 200 nM.
In the case of `CCNCCCCCCCCCCCCNCC`, the inhibition (L1210 [4]) is reported as “No inhibition” and the inhibition (L1210 [5]) is reported as “No inhibition”.
Work on `CCCNCCCCNCCCNCCC` yielded an inhibition at 30 µM (L1210 [1]) of 88% and an inhibition at 30 µM (L1210 [6]) of 83%.
With `CCN(CCCN)CCCCN(CC)CCCN` the inhibition (L1210 [7]) was “No inhibition” and the inhibition (L1210 [8]) was “No inhibition”.
For `CCNCCCN1CCN(CCCNCC)CC1`, the inhibition (L1210 [9]) was “No inhibition” and the inhibition (L1210 [10]) was “No inhibition”.
For `CCNCCCNCCCCNCCCNCC` [BIS(ETHYL)SPERMINE], the IC50 [11] was 500 nM, the IC50 [12] was > 40 µM and the IC50 (HL-60 [13]) was 300 nM. It also gave an IC50 (HL-60 [14]) of 10 µM, a Clones (L1210 [15]) of 100% and a Clones (L1210 [16]) of 75%. It also gave a Clones (L1210 [17]) of 21%, a Clones (L1210 [18]) of 2% and an IC50 (L1210 [3]) of 10 µM. The IC50 (L1210 [2]) was 100 nM, the ILS at 17.5 mg/kg (Mus musculus [19]) was 439% and the ILS (Mus musculus [20]) was 57% and 103%. It also gave an ILS at 5 mg/kg (Mus musculus [21]) of 25%, an ILS at 15 mg/kg (Mus musculus [22]) of 55% and a S/T (Mus musculus [23]) of 0. The Mean survival (Mus musculus [24]) was 9.7 days and 8.9 days, the Mean survival (Mus musculus [25]) was 46.6 days and the Mean survival (Mus musculus [26]) was 14.9 days. It also gave a Mean survival (Mus musculus [27]) of 12.3 days, a Mean survival (Mus musculus [28]) of 35.3 days and a Mean survival (Mus musculus [29]) of 52.3 days. It also gave a Mean survival (Mus musculus [30]) of 14 days, a Mean survival (Mus musculus [31]) of 18.1 days and an ILS at 10 mg/kg (Mus musculus [32]) of 264%. It also gave an ILS at 15 mg/kg (Mus musculus [33]) of 376%, a S/T [34] of 0 and a S/T [35] of 0. It also gave a S/T [36] of 0, a S/T [37] of 0 and a S/T [38] of 0.5. It also gave a S/T [39] of 0.562 and a S/T [40] of 0.
Compound `CCNCCCNCCCNCCCCNCCCNCCCNCC` has an IC50 (L1210 [3]) of 50 µM and an IC50 (L1210 [2]) of 500 nM.
Work on `CCN(CC)CCCNCCCCNCCCN(CC)CC` yielded an inhibition at 50 µM (L1210 [41]) of 80% and an IC50 (L1210 [2]) of 5000 nM.
In the case of `CNCCCNCCCCNCCCNC`, the IC50 (L1210 [2]) is reported as 750 nM and the control growth at 100 µM (L1210 [42]) is reported as 60%.
